Reference: patent US5057494A, “Method for preventing tissue damage after an ischemic episode” (Ethicon, Inc., priority 1988, dated 1991)

Experiments:
[1] = test system: hippocampal pyramidal cell layer; assay: Blinded histological evaluation of brain sections after 5-min bilateral carotid occlusion; assay type: in vivo, gerbil; conditions: for Protection of the animal's neurons (in words): as monitored by motor activity or histology; for Average Histopathology Score: Example 2, saline 4.8, scale 0-5 of Table 4
Source text: (§1) The present example is based on a surgical procedure that has been developed to study the effects of cerebral or brain ischemia in the unanesthetized gerbil. The methodology is based upon the surgical isolation and instrumentation of both common carotid arteries. A loop of dental floss is placed around each carotid artery and passed through a double lumen catheter material; this allows for later occlusion of the carotid arteries and their release in the unanesthetized subject. […] Behavioral changes consequent to stroke are useful and pertinent as a means of evaluation in this model of nonlethal transient ischemia Emotional lability, depression, agitation and motor and cognitive deficits are common after stroke. The psychomotor depression noted immediately after transient ischemia in this gerbil model mimics the clinical situation in humans. Spontaneous motor activity is an indicator of aroused state and is a behavior commonly measured in psychopharmacology research. Changes in locomotor activity have been shown in extensive pharmacological and toxicology studies to provide reliable, reproducible first-assessment data about neurological status. The details of this method are more fully set forth in Chandler, M.J. et al., J. Pharm. Meth. 14:137-146 (1985).
(§2) Ligatures externalized through double lumen catheters were surgically placed around both common carotid arteries of mature (50-60 gram) gerbils. After allowing recovery from surgery, conscious gerbils were subjected to a 5 minute period of bilateral carotid occlusion by tightening the ligatures. Spontaneous motor activity was then periodically monitered over seven days followed by animal sacrifice and blinded histological evaluation of brain sections. EGF (0.1 and 1.0 mg/kg) and FGF (0.1, 1.0 and 10.0 mg/kg) were given intraperitoneally in saline at one hour pre-occlusion and one, three, five and seven hours post-occlusion. Two control groups (occluded and non-occluded) received saline by the same route.
(§3) Gerbils were treated as in Example 1, except that dosing was at 1,3,5 and 7 hours post-occlusion only.

gerbils = assay: Spontaneous locomotor activity after 5-min bilateral carotid occlusion (photocell activity chambers); assay type: in vivo, gerbil; conditions: for Motor Activity at 24 hours: Example 2, saline 3028; for Spontaneous locomotor activity: Table 1, mean of 6 gerbils
Source text: as §1, §2
Spontaneous locomotor activity was recorded using photocell activity chambers. The chambers were two-foot circular arenas that were individually housed in sound attenuating compartments ventilated by a fan. Activity was monitored by two orthogonally placed photocell circuits. A single break of the photocell light beam by the animal's movements defined an activity count counts were monitored and recorded as a function of time. The data in Tables 1 and 2 represent activity counts.
as §3

[2] = 0.01 mg/kg i.p. at 1,3,5,7 h post-occlusion only
[3] = 0.1 mg/kg i.p. at 1,3,5,7 h post-occlusion only
[4] = 1 mg/kg i.p. at 1,3,5,7 h post-occlusion only

Question: With “EGF: epidermal growth factor; polypeptide growth factor (human EGF is fifty-three amino acids); source of tested material not stated” as the substance, how does the “Protection of the animal's neurons (in words)” value ([1]; 0.1 mg/kg i.p. pre- and post-occlusion) read?
Answer: modest protection

Question: And the “Protection of the animal's neurons (in words)” value ([1]; 1 mg/kg i.p. pre- and post-occlusion)?
Answer: almost total protection

Question: What about the “Average Histopathology Score” value [1, 2] of the same substance?
Answer: 4.7

Question: What about the “Average Histopathology Score” value [1, 3] of the same substance?
Answer: 1.5

Question: What about the “Average Histopathology Score” value [1, 4] of the same substance?
Answer: 2.2

Question: What about the “Motor Activity at 24 hours” value (gerbils; [2]) of the same substance?
Answer: 1891

Question: What about the “Motor Activity at 24 hours” value (gerbils; [3]) of the same substance?
Answer: 1051

Question: What about the “Motor Activity at 24 hours” value (gerbils; [4]) of the same substance?
Answer: 715

Question: What about the Spontaneous locomotor activity (gerbils; 0.1 mg/kg i.p. at 1 h pre- and 1,3,5,7 h post-occlusion, 6 h after ischemia, saline post-ischemic 2366, non-ischemic 485) of the same substance?
Answer: 1511 activity counts

Question: What about the Spontaneous locomotor activity (gerbils; 0.1 mg/kg i.p. at 1 h pre- and 1,3,5,7 h post-occlusion, 24 h after ischemia, saline post-ischemic 1960, non-ischemic 529) of the same substance?
Answer: 658 activity counts

Question: What about the Spontaneous locomotor activity (gerbils; 0.1 mg/kg i.p. at 1 h pre- and 1,3,5,7 h post-occlusion, 48 h after ischemia, saline post-ischemic 2145, non-ischemic 613) of the same substance?
Answer: 687 activity counts

Question: What about the Spontaneous locomotor activity (gerbils; 0.1 mg/kg i.p. at 1 h pre- and 1,3,5,7 h post-occlusion, 72 h after ischemia, saline post-ischemic 1011, non-ischemic 579) of the same substance?
Answer: 715 activity counts

Question: What about the Spontaneous locomotor activity (gerbils; 0.1 mg/kg i.p. at 1 h pre- and 1,3,5,7 h post-occlusion, 96 h after ischemia, saline post-ischemic 895, non-ischemic 493) of the same substance?
Answer: 626 activity counts

Question: And the Spontaneous locomotor activity (gerbils; 0.1 mg/kg i.p. at 1 h pre- and 1,3,5,7 h post-occlusion, 120 h after ischemia, saline post-ischemic 486, non-ischemic 463)?
Answer: 511 activity counts

Question: And the Spontaneous locomotor activity (gerbils; 1.0 mg/kg i.p. at 1 h pre- and 1,3,5,7 h post-occlusion, 6 h after ischemia, saline post-ischemic 2366, non-ischemic 485)?
Answer: 705 activity counts

Question: And the Spontaneous locomotor activity (gerbils; 1.0 mg/kg i.p. at 1 h pre- and 1,3,5,7 h post-occlusion, 24 h after ischemia, saline post-ischemic 1960, non-ischemic 529)?
Answer: 766 activity counts

Question: And the Spontaneous locomotor activity (gerbils; 1.0 mg/kg i.p. at 1 h pre- and 1,3,5,7 h post-occlusion, 48 h after ischemia, saline post-ischemic 2145, non-ischemic 613)?
Answer: 588 activity counts

Question: What about the Spontaneous locomotor activity (gerbils; 1.0 mg/kg i.p. at 1 h pre- and 1,3,5,7 h post-occlusion, 72 h after ischemia, saline post-ischemic 1011, non-ischemic 579) of the same substance?
Answer: 463 activity counts

Question: What about the Spontaneous locomotor activity (gerbils; 1.0 mg/kg i.p. at 1 h pre- and 1,3,5,7 h post-occlusion, 96 h after ischemia, saline post-ischemic 895, non-ischemic 493) of the same substance?
Answer: 445 activity counts

Question: And the Spontaneous locomotor activity (gerbils; 1.0 mg/kg i.p. at 1 h pre- and 1,3,5,7 h post-occlusion, 120 h after ischemia, saline post-ischemic 486, non-ischemic 463)?
Answer: 314 activity counts
